Assays:
[1] = target: Follicle-stimulating hormone receptor (Homo sapiens, UniProt P23945); experiment: Cell-based assay (FSH Antagonism)
[2] = tested on: Tyrosine-protein kinase ABL1 (Homo sapiens), P00519 [M351T]; conditions: Compound concentration 1000.0 nM
[3] = tested on: ALK tyrosine kinase receptor (Homo sapiens), Q9UM73 [L1196M]; conditions: Compound concentration 1000.0 nM
[4] = target: Tyrosine-protein kinase Blk (Homo sapiens) (UniProt P51451); conditions: Compound concentration 1000.0 nM
[5] = target: Protein-tyrosine kinase 6 (Homo sapiens) (UniProt Q13882); conditions: Compound concentration 1000.0 nM
[6] = target: Dual specificity protein kinase CLK1 (Homo sapiens) (UniProt P49759); conditions: Compound concentration 1000.0 nM
[7] = target: Death-associated protein kinase 3 (Homo sapiens) (UniProt O43293); conditions: Compound concentration 1000.0 nM
[8] = tested on: Epidermal growth factor receptor (Homo sapiens), P00533 [UNDEFINED MUTATION]; conditions: Compound concentration 1000.0 nM
[9] = target: Ephrin type-A receptor 1 (Homo sapiens) (UniProt P21709); conditions: Compound concentration 1000.0 nM
[10] = target: Ephrin type-A receptor 2 (Homo sapiens) (UniProt P29317); conditions: Compound concentration 1000.0 nM
[11] = target: Mitogen-activated protein kinase 15 (Homo sapiens) (UniProt Q8TD08); conditions: Compound concentration 1000.0 nM
[12] = target: Focal adhesion kinase 1 (Homo sapiens) (UniProt Q05397); conditions: Compound concentration 1000.0 nM
[13] = target: Fibroblast growth factor receptor 2 (Homo sapiens) (UniProt P21802); conditions: Compound concentration 1000.0 nM
[14] = target: Fibroblast growth factor receptor 4 (Homo sapiens) (UniProt P22455); conditions: Compound concentration 1000.0 nM
[15] = tested on: Receptor-type tyrosine-protein kinase FLT3 (Homo sapiens), P36888 [R834Q]; conditions: Compound concentration 1000.0 nM
[16] = target: Beta-adrenergic receptor kinase 1 (Homo sapiens) (UniProt P25098); conditions: Compound concentration 1000.0 nM
Sequence of Beta-adrenergic receptor kinase 1 (Homo sapiens) (P25098 whole entry): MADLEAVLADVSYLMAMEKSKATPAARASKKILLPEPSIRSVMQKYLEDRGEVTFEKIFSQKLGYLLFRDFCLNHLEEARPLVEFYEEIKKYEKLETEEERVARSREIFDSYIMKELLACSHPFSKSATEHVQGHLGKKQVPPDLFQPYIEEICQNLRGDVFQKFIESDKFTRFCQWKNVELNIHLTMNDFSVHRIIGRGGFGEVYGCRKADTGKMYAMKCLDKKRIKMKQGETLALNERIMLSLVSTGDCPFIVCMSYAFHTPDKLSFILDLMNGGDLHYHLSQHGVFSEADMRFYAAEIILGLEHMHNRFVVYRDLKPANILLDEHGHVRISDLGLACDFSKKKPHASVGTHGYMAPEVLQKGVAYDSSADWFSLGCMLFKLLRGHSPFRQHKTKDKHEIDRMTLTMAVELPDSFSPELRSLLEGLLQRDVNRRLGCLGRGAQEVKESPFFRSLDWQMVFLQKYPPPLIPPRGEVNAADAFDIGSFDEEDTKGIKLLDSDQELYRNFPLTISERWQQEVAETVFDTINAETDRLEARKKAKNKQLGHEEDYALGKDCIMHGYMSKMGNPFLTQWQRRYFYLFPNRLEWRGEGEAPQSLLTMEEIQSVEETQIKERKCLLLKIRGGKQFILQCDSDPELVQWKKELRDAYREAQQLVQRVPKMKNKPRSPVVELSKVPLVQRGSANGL

[17] = target: Tyrosine-protein kinase JAK1 (Homo sapiens) (UniProt P23458); conditions: Compound concentration 1000.0 nM
[18] = tested on: Mast/stem cell growth factor receptor Kit (Homo sapiens), P10721 [D816V]; conditions: Compound concentration 1000.0 nM
Sequence of Mast/stem cell growth factor receptor Kit (Homo sapiens), P10721 [D816V] (P10721 whole entry D816V): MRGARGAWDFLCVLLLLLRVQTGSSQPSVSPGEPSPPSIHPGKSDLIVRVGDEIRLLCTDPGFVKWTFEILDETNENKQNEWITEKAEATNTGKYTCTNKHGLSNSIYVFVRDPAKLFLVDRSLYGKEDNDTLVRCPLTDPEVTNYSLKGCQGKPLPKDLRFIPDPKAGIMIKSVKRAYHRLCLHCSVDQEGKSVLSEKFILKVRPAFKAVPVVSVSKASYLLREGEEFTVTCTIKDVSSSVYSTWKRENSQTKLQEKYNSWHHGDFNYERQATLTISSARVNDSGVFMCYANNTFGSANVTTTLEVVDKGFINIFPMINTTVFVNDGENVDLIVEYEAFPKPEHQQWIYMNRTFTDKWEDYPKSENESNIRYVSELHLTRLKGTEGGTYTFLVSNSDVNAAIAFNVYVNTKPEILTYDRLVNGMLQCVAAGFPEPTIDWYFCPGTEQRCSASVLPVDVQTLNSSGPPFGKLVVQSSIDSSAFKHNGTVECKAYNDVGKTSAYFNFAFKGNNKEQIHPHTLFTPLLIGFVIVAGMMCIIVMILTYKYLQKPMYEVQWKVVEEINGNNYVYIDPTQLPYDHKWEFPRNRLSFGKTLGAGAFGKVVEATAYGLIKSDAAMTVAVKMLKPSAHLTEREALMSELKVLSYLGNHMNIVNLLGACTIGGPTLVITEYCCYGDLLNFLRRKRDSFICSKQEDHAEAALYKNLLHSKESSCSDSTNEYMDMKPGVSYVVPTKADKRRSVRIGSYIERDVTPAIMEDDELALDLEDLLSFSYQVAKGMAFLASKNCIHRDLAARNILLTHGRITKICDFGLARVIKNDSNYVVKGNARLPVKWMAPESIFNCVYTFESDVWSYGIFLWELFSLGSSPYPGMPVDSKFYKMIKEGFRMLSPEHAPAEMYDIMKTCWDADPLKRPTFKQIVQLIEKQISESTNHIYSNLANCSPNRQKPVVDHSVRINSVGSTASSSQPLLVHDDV

[19] = target: Serine/threonine-protein kinase LATS2 (Homo sapiens) (UniProt Q9NRM7); conditions: Compound concentration 1000.0 nM
[20] = target: Leukocyte tyrosine kinase receptor (Homo sapiens) (UniProt P29376); conditions: Compound concentration 1000.0 nM
[21] = target: MAP kinase-activated protein kinase 5 (Homo sapiens) (UniProt Q8IW41); conditions: Compound concentration 1000.0 nM
[22] = target: Misshapen-like kinase 1 (Homo sapiens) (UniProt Q8N4C8); conditions: Compound concentration 1000.0 nM
[23] = target: MAP kinase-interacting serine/threonine-protein kinase 1 (Homo sapiens) (UniProt Q9BUB5); conditions: Compound concentration 1000.0 nM
[24] = target: Myosin light chain kinase (Homo sapiens) (UniProt Q32MK0); conditions: Compound concentration 1000.0 nM
Sequence of Myosin light chain kinase (Homo sapiens) (Q32MK0 whole entry): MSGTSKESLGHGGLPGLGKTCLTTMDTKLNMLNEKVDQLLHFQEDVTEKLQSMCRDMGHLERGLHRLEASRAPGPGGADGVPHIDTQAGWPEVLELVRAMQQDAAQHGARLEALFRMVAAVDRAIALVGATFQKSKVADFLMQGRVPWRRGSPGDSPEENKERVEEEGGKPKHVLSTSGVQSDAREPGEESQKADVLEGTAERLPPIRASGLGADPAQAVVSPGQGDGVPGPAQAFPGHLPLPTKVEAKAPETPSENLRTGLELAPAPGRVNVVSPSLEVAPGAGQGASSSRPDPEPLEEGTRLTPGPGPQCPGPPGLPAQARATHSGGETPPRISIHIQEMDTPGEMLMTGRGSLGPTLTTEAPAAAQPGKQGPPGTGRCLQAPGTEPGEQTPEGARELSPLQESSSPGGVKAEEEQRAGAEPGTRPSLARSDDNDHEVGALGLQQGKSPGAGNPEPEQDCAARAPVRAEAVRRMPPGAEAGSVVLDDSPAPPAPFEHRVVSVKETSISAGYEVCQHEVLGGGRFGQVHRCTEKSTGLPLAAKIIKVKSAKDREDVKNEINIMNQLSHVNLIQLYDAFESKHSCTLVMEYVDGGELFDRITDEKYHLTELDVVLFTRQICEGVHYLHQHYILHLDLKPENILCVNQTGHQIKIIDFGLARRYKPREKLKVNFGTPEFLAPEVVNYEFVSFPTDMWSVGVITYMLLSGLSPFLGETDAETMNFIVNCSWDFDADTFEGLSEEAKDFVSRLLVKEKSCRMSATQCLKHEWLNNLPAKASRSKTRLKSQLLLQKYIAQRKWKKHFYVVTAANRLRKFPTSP

[25] = target: Mitogen-activated protein kinase kinase kinase 9 (Homo sapiens) (UniProt P80192); conditions: Compound concentration 1000.0 nM
[26] = target: Serine/threonine-protein kinase 4 (Homo sapiens) (UniProt Q13043); conditions: Compound concentration 1000.0 nM
[27] = target: Serine/threonine-protein kinase 38 (Homo sapiens) (UniProt Q15208); conditions: Compound concentration 1000.0 nM
[28] = target: Serine/threonine-protein kinase Nek2 (Homo sapiens) (UniProt P51955); conditions: Compound concentration 1000.0 nM
[29] = target: Serine/threonine-protein kinase Nek9 (Homo sapiens) (UniProt Q8TD19); conditions: Compound concentration 1000.0 nM
[30] = target: Mitogen-activated protein kinase 14 (Homo sapiens) (UniProt Q16539); conditions: Compound concentration 1000.0 nM
[31] = target: Serine/threonine-protein kinase PAK 3 (Homo sapiens) (UniProt O75914); conditions: Compound concentration 1000.0 nM
[32] = tested on: Phosphatidylinositol 4,5-bisphosphate 3-kinase catalytic subunit alpha isoform (Homo sapiens), P42336 [H1047Y]; conditions: Compound concentration 1000.0 nM
[33] = target: Phosphatidylinositol 4,5-bisphosphate 3-kinase catalytic subunit gamma isoform (Homo sapiens) (UniProt P48736); conditions: Compound concentration 1000.0 nM
Sequence of Phosphatidylinositol 4,5-bisphosphate 3-kinase catalytic subunit gamma isoform (Homo sapiens) (P48736 whole entry, looked up, canonical isoform): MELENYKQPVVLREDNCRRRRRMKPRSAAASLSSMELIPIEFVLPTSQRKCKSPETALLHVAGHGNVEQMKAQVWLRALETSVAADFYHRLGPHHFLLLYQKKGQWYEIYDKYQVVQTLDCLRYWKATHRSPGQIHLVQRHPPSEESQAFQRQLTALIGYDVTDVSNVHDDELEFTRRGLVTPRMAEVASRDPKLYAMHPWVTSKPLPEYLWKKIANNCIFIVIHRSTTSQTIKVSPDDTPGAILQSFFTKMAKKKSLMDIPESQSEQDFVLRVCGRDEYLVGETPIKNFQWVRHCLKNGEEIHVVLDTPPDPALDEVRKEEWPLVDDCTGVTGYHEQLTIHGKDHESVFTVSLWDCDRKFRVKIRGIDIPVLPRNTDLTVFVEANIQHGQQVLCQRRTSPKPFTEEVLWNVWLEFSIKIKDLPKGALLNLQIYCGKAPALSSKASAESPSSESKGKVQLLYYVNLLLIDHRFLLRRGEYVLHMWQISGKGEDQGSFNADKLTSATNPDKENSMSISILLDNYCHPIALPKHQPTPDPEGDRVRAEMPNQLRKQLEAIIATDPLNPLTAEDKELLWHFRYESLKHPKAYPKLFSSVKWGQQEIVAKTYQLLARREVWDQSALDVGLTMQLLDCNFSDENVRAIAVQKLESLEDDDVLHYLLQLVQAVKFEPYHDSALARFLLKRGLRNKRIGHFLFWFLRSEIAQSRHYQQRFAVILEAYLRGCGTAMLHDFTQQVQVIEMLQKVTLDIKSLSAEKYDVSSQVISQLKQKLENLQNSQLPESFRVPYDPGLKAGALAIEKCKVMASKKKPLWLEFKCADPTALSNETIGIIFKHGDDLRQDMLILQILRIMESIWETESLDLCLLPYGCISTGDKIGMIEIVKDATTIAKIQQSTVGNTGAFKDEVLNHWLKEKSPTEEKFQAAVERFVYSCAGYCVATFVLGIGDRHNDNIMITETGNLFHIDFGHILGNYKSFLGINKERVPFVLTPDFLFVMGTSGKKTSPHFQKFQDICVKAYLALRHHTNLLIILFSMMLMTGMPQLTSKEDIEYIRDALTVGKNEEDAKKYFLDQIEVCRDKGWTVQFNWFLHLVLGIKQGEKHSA

[34] = target: Serine/threonine-protein kinase pim-1 (Homo sapiens) (UniProt P11309); conditions: Compound concentration 1000.0 nM
[35] = target: Serine/threonine-protein kinase PLK1 (Homo sapiens) (UniProt P53350); conditions: Compound concentration 1000.0 nM
[36] = target: Serine/threonine-protein kinase RIO1 (Homo sapiens) (UniProt Q9BRS2); conditions: Compound concentration 1000.0 nM
[37] = target: Dual serine/threonine and tyrosine protein kinase (Homo sapiens) (UniProt Q6XUX3); conditions: Compound concentration 1000.0 nM
[38] = target: Rho-associated protein kinase 1 (Homo sapiens) (UniProt Q13464); conditions: Compound concentration 1000.0 nM
Sequence of Rho-associated protein kinase 1 (Homo sapiens) (Q13464 2-1354 limits assumed): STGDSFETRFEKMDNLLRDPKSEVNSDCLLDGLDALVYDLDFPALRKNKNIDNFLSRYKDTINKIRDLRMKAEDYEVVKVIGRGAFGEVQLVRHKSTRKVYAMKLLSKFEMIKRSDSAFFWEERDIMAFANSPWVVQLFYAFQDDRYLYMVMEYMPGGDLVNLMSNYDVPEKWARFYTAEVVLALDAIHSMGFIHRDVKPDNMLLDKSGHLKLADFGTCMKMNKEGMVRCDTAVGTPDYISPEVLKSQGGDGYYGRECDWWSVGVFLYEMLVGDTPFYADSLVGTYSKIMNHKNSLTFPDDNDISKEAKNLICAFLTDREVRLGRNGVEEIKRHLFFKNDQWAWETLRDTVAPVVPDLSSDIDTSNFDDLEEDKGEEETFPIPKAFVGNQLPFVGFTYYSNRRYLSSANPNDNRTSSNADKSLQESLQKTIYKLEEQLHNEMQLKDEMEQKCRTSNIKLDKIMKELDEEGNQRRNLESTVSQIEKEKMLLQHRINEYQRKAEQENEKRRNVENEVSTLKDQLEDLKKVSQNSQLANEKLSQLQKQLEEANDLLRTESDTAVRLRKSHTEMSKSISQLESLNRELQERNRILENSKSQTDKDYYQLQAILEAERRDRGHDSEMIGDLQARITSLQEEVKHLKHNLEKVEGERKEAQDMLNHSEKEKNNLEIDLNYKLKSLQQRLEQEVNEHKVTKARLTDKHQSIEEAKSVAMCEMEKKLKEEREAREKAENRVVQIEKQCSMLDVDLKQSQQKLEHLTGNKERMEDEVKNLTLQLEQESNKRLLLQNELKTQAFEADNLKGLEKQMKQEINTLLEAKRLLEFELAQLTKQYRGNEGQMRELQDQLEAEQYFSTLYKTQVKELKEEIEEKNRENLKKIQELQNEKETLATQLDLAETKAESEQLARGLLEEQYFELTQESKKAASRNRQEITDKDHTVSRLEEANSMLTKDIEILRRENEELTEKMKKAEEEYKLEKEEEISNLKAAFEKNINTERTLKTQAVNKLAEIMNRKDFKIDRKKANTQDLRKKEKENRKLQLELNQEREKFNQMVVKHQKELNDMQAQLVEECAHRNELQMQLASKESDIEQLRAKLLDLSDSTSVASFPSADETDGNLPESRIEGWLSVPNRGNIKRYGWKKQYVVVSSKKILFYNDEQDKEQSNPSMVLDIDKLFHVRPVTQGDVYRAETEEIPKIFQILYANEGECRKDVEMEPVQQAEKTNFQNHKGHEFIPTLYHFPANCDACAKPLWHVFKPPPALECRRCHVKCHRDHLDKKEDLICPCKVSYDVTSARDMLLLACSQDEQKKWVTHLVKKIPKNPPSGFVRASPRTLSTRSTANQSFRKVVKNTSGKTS

[39] = target: Ribosomal protein S6 kinase alpha-1 (Homo sapiens) (UniProt Q15418); conditions: Compound concentration 1000.0 nM
[40] = target: Serine/threonine-protein kinase 35 (Homo sapiens) (UniProt Q8TDR2); conditions: Compound concentration 1000.0 nM
[41] = target: Serine/threonine-protein kinase 36 (Homo sapiens) (UniProt Q9NRP7); conditions: Compound concentration 1000.0 nM
[42] = target: Wee1-like protein kinase (Homo sapiens) (UniProt P30291); conditions: Compound concentration 1000.0 nM
[43] = target: 5-hydroxytryptamine receptor 1D (Homo sapiens) (UniProt P28221); conditions: Compound concentration 10.0 uM
[44] = target: D(1A) dopamine receptor (Homo sapiens) (UniProt P21728); conditions: Compound concentration 10.0 uM
[45] = target: Kappa-type opioid receptor (Homo sapiens, UniProt P41145); conditions: Compound concentration 10.0 uM
[46] = target: Alpha-1D adrenergic receptor (Homo sapiens) (UniProt P25100); conditions: Compound concentration 10.0 uM

O=C(Nc1ccc(Oc2ccc(F)cc2)cc1)N1CCc2ncccc2[C@H]1c1ccc(F)cc1 [BAY-897]
IC50 [1]: > 16 µM (not active)
residual activity [2]: 51%
residual activity [3]: 100%
residual activity [4]: 90%
residual activity [5]: 100%
residual activity [6]: 86%
residual activity [7]: 100%
residual activity [8]: 100%
residual activity [9]: 100%
residual activity [10]: 100%
residual activity [11]: 94%
residual activity [12]: 100%
residual activity [13]: 93%
residual activity [14]: 95%
residual activity [15]: 97%
residual activity [16]: 92%
residual activity [17]: 100%
residual activity [18]: 100%
residual activity [19]: 100%
residual activity [20]: 86%
residual activity [21]: 75%
residual activity [22]: 99%
residual activity [23]: 95%
residual activity [24]: 80%
residual activity [25]: 100%
residual activity [26]: 99%
residual activity [27]: 99%
residual activity [28]: 93%
residual activity [29]: 88%
residual activity [30]: 100%
residual activity [31]: 100%
residual activity [32]: 100%
residual activity [33]: 87%
residual activity [34]: 99%
residual activity [35]: 78%
residual activity [36]: 100%
residual activity [37]: 100%
residual activity [38]: 100%
residual activity [39]: 79%
residual activity [40]: 80%
residual activity [41]: 89%
residual activity [42]: 100%
inhibition [43]: 43.3%
inhibition [44]: 39.1%
inhibition [45]: 79.3%
inhibition [46]: 34%

O=C(Nc1cnc(Oc2ccc(F)cc2)nc1)N1CCc2ncccc2[C@@H]1c1ccc(F)cc1 [BAY-899]
IC50 [1]: > 16 µM (not active)
residual activity [2]: 57%
residual activity [3]: 100%
residual activity [4]: 80%
residual activity [5]: 98%
residual activity [6]: 80%
residual activity [7]: 100%
residual activity [8]: 100%
residual activity [9]: 100%
residual activity [10]: 99%
residual activity [11]: 93%
residual activity [12]: 100%
residual activity [13]: 98%
residual activity [14]: 98%
residual activity [15]: 99%
residual activity [16]: 90%
residual activity [17]: 96%
residual activity [18]: 98%
residual activity [19]: 99%
residual activity [20]: 93%
residual activity [21]: 91%
residual activity [22]: 100%
residual activity [23]: 95%
residual activity [24]: 89%
residual activity [25]: 92%
residual activity [26]: 100%
residual activity [27]: 91%
residual activity [28]: 92%
residual activity [29]: 90%
residual activity [30]: 79%
residual activity [31]: 100%
residual activity [32]: 100%
residual activity [33]: 85%
residual activity [34]: 91%
residual activity [35]: 80%
residual activity [36]: 89%
residual activity [37]: 100%
residual activity [38]: 100%
residual activity [39]: 71%
residual activity [40]: 71%
residual activity [41]: 91%
residual activity [42]: 85%
inhibition [43]: 4.38%
inhibition [44]: 23.7%
inhibition [45]: 56.3%
inhibition [46]: 8.01%
